Legend:
[1] = tested on: 5XFAD/Rubicon KO mice; test: Plasma neurofilament light chain (NfL) ELISA in 5XFAD/Rubicon KO mice; format: in vivo, mouse; details: 20 mg/kg, 9 weeks PO QD; lack of a dose-response
Procedure: 5XFAD/Rubicon KO mice received vehicle (0.5% w/v methylcellulose/0.1% w/v Tween® 80 in water) or VEN-02XX (0.01, 1, or 20 mg/kg) every day by oral gastric gavage for 9 weeks.
Blood was collected via submandibular puncture. Briefly, mice were immobilized, and a small puncture was made in the submandibular vein using a sterile 28 g lancet. Blood was collected using a capillary tube coated in 0.5 M EDTA into separation tubes for plasma as indicated. Blood was subsequently centrifuged for 15 min at 13,000 rpm in a refrigerated centrifuge. Plasma was harvested as indicated and was either used immediately or stored at −80 °C until use.
Brain tissue was homogenized in PBS, pH 7.4 with 1X Halt™ protease inhibitor cocktail (Thermo Fisher Scientific, Waltham, MA) using a Bead Ruptor homogenizer (Omni International, Kennesaw, GA). Homogenates were clarified by centrifugation at 10,000 × g for 10 min. The crude homogenate was used for quantification of VEN-02XX levels, as described below. Total protein concentrations were quantified from clarified supernatants in a Pierce BCA protein assay (Thermo Fisher Scientific). Cytokine and chemokine levels were quantified using an electrochemiluminescence immunoassay (ECLIA) for IL-1β (total), TNFα, IL-6 and IP-10 (U-PLEX Custom Biomarker Group 1 (mouse) assay, Meso Scale Discovery, Rockville, MD) following the manufacturer’s instructions. […]

[2] = Mouse brain pharmacokinetic study (brain-to-plasma partition); format: in vivo; details: male, single oral dose 20 mg/kg
Procedure: Five groups of n = 3 male CD1 mice (weight 20–30 g, age 6–8 weeks old) were dosed by oral gavage with 20 mg/kg of VEN-02XX suspended in 0.5% w/v methylcellulose/0.1% w/v Tween 80, at a dose volume of 10 mL/kg. Food and water were available ad libitum to all animals. At a specific timepoint for each group (0.25, 1, 2, 4, and 8 h), 0.2 mL of blood was collected from the dorsal metatarsal vein and transferred into plastic micro centrifuge tubes with EDTA-K2 as anticoagulant, then animals were terminally anaesthetized with a rising concentration of CO2 gas for about 1 min, brains were collected and rinsed with cold PBS. […]
Concentrations of VEN-02XX in plasma and brain were determined by a LC-MS/MS assay. […] Two transitions were monitored for VEN-02XX and the more sensitive transition with less interference (397.1 –> 270.1) was used for quantification.
Pharmacokinetic parameters were determined by non-compartmental analysis using WinNonLin software (Phoenix^TM, version 8.3), and the following parameters were calculated from the plasma concentrations versus time data: T1/2, Cmax, Tmax, AUCinf, AUClast. When appropriate, the brain Kp was calculated as AUClast(brain)/AUClast(plasma). Free brain partition coefficient (Kpuu) was calculated using the free fraction in plasma and brain measured in a high throughput equilibrium dialysis assay.

SMILES: CC(C)(O)CNc1nnc(-c2ccc(Cl)cc2C(F)(F)F)c2ccncc12 [VEN-02XX]
- plasma NfL levels [1]: significantly reduced
- Kp ([2]; CD1, brain and plasma (total), AUClast (total drug), read-out: total brain-to-plasma partition coefficient, Kp): 0.86
- Kp uu ([2]; CD1, brain and plasma (unbound), AUClast (free drug), read-out: unbound brain-to-plasma partition coefficient, Kp,uu brain): 0.39
